Data reported in PubChem BioAssay AID192 (DTP/NCI, 2004).
Several values for one entry are separate records, joined by “and”; a condition that tells them apart may be missing. Equal values may be shown once. Toxic doses and inconclusive results are not listed. The calls were made as follows: active = survival T/C of 150% or more; inactive = T/C below 125% in these data.

Tested on: BDF1 mice, B16 melanoma ip, median survival T/C
Assay: NCI In Vivo Anticancer Drug Screen. Data for tumor model B16 Melanoma (intraperitoneal) in B6D2F1 (BDF1) mice
Conditions: endpoint: median survival time, higher = longer survival
Summary of the method: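 Vehicle-treated animals serve as the reference (C); treated animals (T) are scored for survival or tumor size after tumor transplantation.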

[1] = dose: 25.0 mg/kg/injection, schedule: Q01DX009 (ip), vehicle: Klucel (hydroxypropylcellulose) (HPC)
[2] = dose: 50.0 mg/kg/injection, schedule: Q01DX009 (ip), vehicle: Klucel (hydroxypropylcellulose) (HPC)
[3] = dose: 100.0 mg/kg/injection, schedule: Q01DX009 (ip), vehicle: Klucel (hydroxypropylcellulose) (HPC)
[4] = dose: 25.0 mg/kg/injection, schedule: Q01DX009 (ip), vehicle: saline with Tween-80
[5] = dose: 50.0 mg/kg/injection, schedule: Q01DX009 (ip), vehicle: saline with Tween-80
[6] = dose: 200.0 mg/kg/injection, schedule: Q01DX009 (ip), vehicle: Klucel (hydroxypropylcellulose) (HPC)
[7] = dose: 400.0 mg/kg/injection, schedule: Q01DX009 (ip), vehicle: Klucel (hydroxypropylcellulose) (HPC)
[8] = dose: 100.0 mg/kg/injection, schedule: Q04DX003 (ip), vehicle: saline
[9] = dose: 200.0 mg/kg/injection, schedule: Q04DX003 (ip), vehicle: saline
[10] = dose: 6.25 mg/kg/injection, schedule: Q01DX009 (ip), vehicle: saline with Tween-80
[11] = dose: 12.5 mg/kg/injection, schedule: Q01DX009 (ip), vehicle: saline with Tween-80

Measured: T/C

Cc1oc2c(c(=O)c1C)C1CCC(C2)N1C (stereo unspecified)
inactive: [1] 103 % of control | [2] 103 % of control | [3] 97 % of control

CNC(C)C1(O)Cc2c(O)c3c(c(O)c2C(OC2CC(N)C(O)C(C)O2)C1)C(=O)c1c(OC)cccc1C3=O (stereo unspecified)
active: dose: 4.0 mg/kg/injection, schedule: Q01DX009 (ip), vehicle: water 163 % of control | dose: 8.0 mg/kg/injection, schedule: Q01DX009 (ip), vehicle: water 172 % of control
inactive: dose: 0.5 mg/kg/injection, schedule: Q01DX009 (ip), vehicle: water 108 % of control | dose: 1.0 mg/kg/injection, schedule: Q01DX009 (ip), vehicle: water 112 % of control

Cc1ccc(C(=O)C(c2ccccc2)C(Cl)c2ccccc2)cc1 (stereo unspecified)
inactive: dose: 100.0 mg/kg/injection, schedule: Q04DX003 (ip), vehicle: Klucel (hydroxypropylcellulose) (HPC) 102 % of control | dose: 200.0 mg/kg/injection, schedule: Q04DX003 (ip), vehicle: Klucel (hydroxypropylcellulose) (HPC) 103 % of control | dose: 400.0 mg/kg/injection, schedule: Q04DX003 (ip), vehicle: Klucel (hydroxypropylcellulose) (HPC) 103 % of control

CCOC(=O)N1C(=O)c2ccccc2C1=O
inactive: [4] 94 % of control | [5] 94 % of control | dose: 100.0 mg/kg/injection, schedule: Q01DX009 (ip), vehicle: saline with Tween-80 86 % of control

CC1(C)C2CCC1C(CO)C2 (stereo unspecified)
inactive: [2] 100 % of control | [3] 103 % of control | [6] 90 % of control

O=C(CBr)OCCOc1ccccc1
inactive: dose: 5.0 mg/kg/injection, schedule: Q01DX009 (ip), vehicle: saline sonified 87 % of control | dose: 10.0 mg/kg/injection, schedule: Q01DX009 (ip), vehicle: saline sonified 90 % of control | dose: 20.0 mg/kg/injection, schedule: Q01DX009 (ip), vehicle: saline sonified 102 % of control | dose: 40.0 mg/kg/injection, schedule: Q01DX009 (ip), vehicle: saline sonified 92 % of control

CC(C)C(=O)NNCc1ccccc1
inactive: dose: 6.25 mg/kg/injection, schedule: Q01DX009 (ip), vehicle: Klucel (hydroxypropylcellulose) (HPC) 95 % of control | dose: 12.5 mg/kg/injection, schedule: Q01DX009 (ip), vehicle: Klucel (hydroxypropylcellulose) (HPC) 97 % of control | [1] 95 % of control | [2] 90 % of control

C/C=C(/C(=O)NC(N)=O)C(C)C
inactive: [1] 100 % of control | [2] 105 % of control | [3] 105 % of control | [6] 94 % of control | [7] 97 % of control

COc1cc2c3c(c1)-c1nc4ccccc4cc1CN3CCC2
inactive: dose: 25.0 mg/kg/injection, schedule: Q04DX003 (ip), vehicle: alcohol 111 % of control | dose: 50.0 mg/kg/injection, schedule: Q04DX003 (ip), vehicle: alcohol 104 % of control | dose: 100.0 mg/kg/injection, schedule: Q04DX003 (ip), vehicle: alcohol 106 % of control | dose: 200.0 mg/kg/injection, schedule: Q04DX003 (ip), vehicle: alcohol 98 % of control

CC1C[N-]CC(C)C1.CC1C[N-]CC(C)C1.CC1C[N-]CC(C)C1.CC1C[N-]CC(C)C1.[Cl][Rh][Cl] (stereo unspecified)
inactive: dose: 1.5 mg/kg/injection, schedule: Q01DX009 (ip), vehicle: saline with Tween-80 91 % of control | dose: 3.0 mg/kg/injection, schedule: Q01DX009 (ip), vehicle: saline with Tween-80 107 % of control | dose: 3.0 mg/kg/injection, schedule: Q01DX009 (ip), vehicle: saline 116 % of control | dose: 6.0 mg/kg/injection, schedule: Q01DX009 (ip), vehicle: saline with Tween-80 93 % of control | dose: 6.0 mg/kg/injection, schedule: Q01DX009 (ip), vehicle: saline 116 % of control

O=C(O)CC[P+](c1ccccc1)(c1ccccc1)c1ccccc1
inactive: [8] 101 % of control | [9] 116 % of control | dose: 400.0 mg/kg/injection, schedule: Q04DX003 (ip), vehicle: saline 116 % of control

CCNC(C)(C)C(SSSC(c1cccs1)C(C)(C)NCC)c1cccs1 (stereo unspecified)
inactive: [1] 100 % of control | [2] 94 % of control

Clc1ccc2c(c1)/C(=C/c1ccccc1Cl)c1cc(Cl)cc(Cl)c1-2
inactive: [10] 90 % of control | [11] 88 % of control

Cc1cccc(NC(=O)CCl)c1
inactive: dose: 50.0 mg/kg/injection, schedule: Q01DX009 (ip), vehicle: carboxymethylcellulose (CMC) 109 % of control | dose: 100.0 mg/kg/injection, schedule: Q01DX009 (ip), vehicle: carboxymethylcellulose (CMC) 101 % of control

Cc1ccc(N2C(=O)CC(Sc3ccccc3N)C2=O)cc1 (stereo unspecified)
inactive: [1] 97 % of control | [2] 91 % of control | [3] 86 % of control and 91 % of control

C[C@]12CC[C@H](OC(=O)COc3ccc(N(CCCl)CCCl)cc3)C[C@@H]1CC[C@@H]1[C@@H]2CC[C@]2(C)NC(=O)CC[C@@H]12
inactive: dose: 4.0 mg/kg/injection, schedule: Q01DX009 (ip), vehicle: saline with Tween-80 111 % of control | dose: 32.0 mg/kg/injection, schedule: Q01DX009 (ip), vehicle: saline with Tween-80 109 % of control

C/C(=N\[N+](C)(C)C)c1ccc2ccccc2c1
inactive: [1] 93 % of control | [2] 100 % of control

CC1C(=O)OCC2=CCN3CCC(OC(=O)C(C)C1(C)O)C23 (stereo unspecified)
inactive: dose: 5.0 mg/kg/injection, schedule: Q01DX009 (ip), vehicle: saline 109 % of control | dose: 10.0 mg/kg/injection, schedule: Q01DX009 (ip), vehicle: saline 111 % of control | dose: 12.5 mg/kg/injection, schedule: Q01DX009 (ip), vehicle: saline 123 % of control | dose: 20.0 mg/kg/injection, schedule: Q01DX009 (ip), vehicle: saline 111 % of control | dose: 25.0 mg/kg/injection, schedule: Q01DX009 (ip), vehicle: saline 121 % of control | dose: 40.0 mg/kg/injection, schedule: Q01DX009 (ip), vehicle: saline 109 % of control | dose: 50.0 mg/kg/injection, schedule: Q01DX009 (ip), vehicle: saline 121 % of control

CC1=CCC=C(CNc2ncnc3nc[nH]c23)C1
inactive: dose: 3.13 mg/kg/injection, schedule: Q01DX009 (ip), vehicle: saline with Tween-80 102 % of control | [10] 102 % of control | [11] 90 % of control | dose: 12.5 mg/kg/injection, schedule: Q04DX003 (ip), vehicle: saline with Tween-80 100 % of control | dose: 25.0 mg/kg/injection, schedule: Q04DX003 (ip), vehicle: saline with Tween-80 102 % of control | [5] 88 % of control | dose: 50.0 mg/kg/injection, schedule: Q04DX003 (ip), vehicle: saline with Tween-80 102 % of control

O=C1C(NCCO)=C(N2CC2)C(=O)C(NCCO)=C1N1CC1
active: dose: 0.19 mg/kg/injection, schedule: Q01DX009 (ip), vehicle: saline 165 % of control and 202 % of control | dose: 0.37 mg/kg/injection, schedule: Q01DX009 (ip), vehicle: saline 161 % of control | dose: 0.38 mg/kg/injection, schedule: Q01DX009 (ip), vehicle: saline 191 % of control and 236 % of control | dose: 0.75 mg/kg/injection, schedule: Q01DX009 (ip), vehicle: saline 221 % of control

NC(=O)Oc1cccc(OC(N)=O)c1
inactive: dose: 12.5 mg/kg/injection, schedule: Q01DX009 (ip), vehicle: water 89 % of control | dose: 25.0 mg/kg/injection, schedule: Q01DX009 (ip), vehicle: water 94 % of control | dose: 50.0 mg/kg/injection, schedule: Q01DX009 (ip), vehicle: water 93 % of control | dose: 100.0 mg/kg/injection, schedule: Q01DX009 (ip), vehicle: water 105 % of control | dose: 200.0 mg/kg/injection, schedule: Q01DX009 (ip), vehicle: water 93 % of control | dose: 400.0 mg/kg/injection, schedule: Q01DX009 (ip), vehicle: water 107 % of control

O=C(Cl)COc1cccc2ccccc12
inactive: [3] 103 % of control | [6] 110 % of control | [7] 106 % of control

CC1=C(/C=C/C(C)=N/NC(N)=O)C(C)(C)CCC1
inactive: dose: 50.0 mg/kg/injection, schedule: Q04DX003 (ip), vehicle: saline 112 % of control | [8] 95 % of control | [9] 102 % of control

CC(=O)c1ccc(Oc2ccc(/C(C)=N\N=C(N)N)cc2)cc1
inactive: [11] 95 % of control | [4] 92 % of control
